{"source": "patent US20210052600A1", "about": "“THERAPEUTIC AGENTS FOR STRESS URINARY INCONTINENCE AND INCOTINENCE OF FECES” (Takeda Pharmaceutical Company Limited, priority 2017, published 2021)", "key": {"[1]": {"biological_target": "T1, human 5-HT2C receptors (Homo sapiens, UniProt P28335)", "T1 construct": "expressed in transfected cells; host or cells: CHO-K1 cells", "T1 sequence (P28335 33-458)": "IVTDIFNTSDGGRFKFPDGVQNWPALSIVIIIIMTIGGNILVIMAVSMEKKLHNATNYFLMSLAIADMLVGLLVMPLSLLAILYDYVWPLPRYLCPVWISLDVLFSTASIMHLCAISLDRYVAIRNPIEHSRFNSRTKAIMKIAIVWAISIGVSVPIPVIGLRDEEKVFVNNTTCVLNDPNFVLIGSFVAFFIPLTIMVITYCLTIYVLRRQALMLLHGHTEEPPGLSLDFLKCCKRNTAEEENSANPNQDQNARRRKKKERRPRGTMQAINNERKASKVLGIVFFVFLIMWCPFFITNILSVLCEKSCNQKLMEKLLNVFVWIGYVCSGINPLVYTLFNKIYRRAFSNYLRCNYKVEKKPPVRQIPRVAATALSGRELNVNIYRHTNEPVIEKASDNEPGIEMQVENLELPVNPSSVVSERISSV", "test": "In vitro test of agonistic potency on human 5-HT2C receptor (change in intracellular Ca2+)", "format": "cell-based", "settings": "CHO-K1 cells expressing recombinant human 5-HT2C receptors; intracellular Ca2+ (Fluo-4)"}, "[2]": {"system": "urethral resistance", "test": "Urethral resistance (LPP) during intravesical pressure rise by electrical stimulation of rat abdominal muscle", "format": "in vivo", "settings": "mean ± SEM; for LPP Post: 30 minutes after administration; for LPP Increase: Post minus Pre; for LPP Pre: before administration", "description": "Fifty six female rats of Sprague-Dawley strain (hereinafter, referred to as “SD strain”) were used. The rats were anesthetized with urethane, and their spinal cord was transected at the T8-T9 (the eighth thoracic cord—the ninth thoracic cord) level for the elimination of reflex voiding. Isoflurane inhalation was added, if necessary. After opening of the abdomen, a catheter (PE-100) was inserted into the bladder. In order to secure reduced urethral resistance, unilateral nerve to iliococcygeus and pubococcygeus muscles was transected. For intraduodenal administration, another catheter (PE-50) was inserted into the duodenum in advance. The abdominal muscle and skin were each closed with sutures. Two (right and left) sites of abdominal skin near the diaphragm were cut to expose abdominal muscle. The bladder was emptied through the catheter, followed by the injection of 0.2 to 0.3 mL of 0.1% Evans blue solution. Change in intravesical pressure was recorded using the bladder catheter via a pressure transducer, an electric signal amplifier, and an analog-to-digital converter. While change in intravesical pressure was recorded, the presence or absence of fluid leakage from the urethral orifice was observed under the electrical stimulation of the exposed abdominal muscle using an electrical stimulator and an isolator. […] The peak of the intravesical pressure during the stimulation of the abdominal muscle was measured, and the lowest pressure at which the fluid leakage was observed among the trials was defined as leak point pressure (hereinafter, referred to as “LPP”) for the electrical abdominal muscle stimulation method and used as an index for urethral resistance. Each drug was evaluated for its effect by comparing LPP before drug administration with that after drug administration. […] The drugs were suspended in 0.5% methylcellulose solution (MC). […] LPP was measured again 30 minutes after administration. Regarding change in LPP before and after drug administration, the differences between the mean values of the drug-treated and vehicle groups were analyzed by the one-tailed Williams' test."}, "[3]": {"test": "Body weight of obese rats (DIO-F344) under continuous subcutaneous administration and effective plasma concentration", "format": "in vivo, rat", "settings": "for Change in body weight (% change): mean ± SEM", "experimental": "Forty male DIO-F344 rats bred with high fat diet (42 kcal % fat) were used. On the day before surgery, the rats were grouped on the basis of their body weight. Compound A′ and Compound B′ were each dissolved in saline. Osmotic pumps filled with the Compound A′ or Compound B′ solution were subcutaneously implanted in the rats under isoflurane anesthesia. The body weight just after surgery was used as a Pre value, and the body weight was measured every day until 14 days after surgery. Regarding the averages in the body weight on Day 14, the difference in the mean averages of the drug-treated group and the vehicle-treated group was analyzed by the one-tailed Williams' test.\nThe average Day 14 plasma concentration from the values of each rat measured in the morning and afternoon was used as a plasma concentration for the animal. The rate of change in body weight was calculated from the values measured just after and 14 days after osmotic pump implantation. The rate (average rate) of change of the vehicle group was subtracted from that of each drug-administered rat to plot the plasma concentration and the change in body weight. The plasma concentration at which the drug lowered the body weight by 3.8% was calculated by linear regression analysis."}, "[4]": {"system": "anus-closing function increasing effect of Compound A′", "test": "Influence of SB 242084 on Compound A′-induced rat anus-closing function increasing effect (Anal LPP)", "format": "in vivo", "settings": "vehicle i.v. then Compound A′ 1 mg/kg i.v.; 5 minutes after Compound A′; n=9", "experimental": "(§1) Eighteen female SD rats were used. After overnight fasting, rats were intraperitoneally administered with urethane for anesthesia, and isoflurane inhalation was added during surgery. The abdomen was incised to expose the rectum, and a small incision of the rectum was made. A polyethylene catheter (SP61, Natsume) was inserted into the rectum through the rectum incision, and the tip of the catheter was positioned around 5 mm from the anal orifice. The other end of the catheter was connected with a pressure transducer and an infusion pump via three-way stopcocks, and the change in pressure in the rectum was measured using the pressure transducer, an electric signal amplifier, and an analog-to-digital converter. For administrating drugs, a polyethylene catheter (SP45, Natsume) was inserted into the femoral vein after exposing the vein by small incision.\nAfter recovery period from surgery, while saline was infused at a speed of 0.1 mL/sec into the rectum using an infusion pump, change in the measured pressure—was observed. […] The peak value of the pressure recorded in the rectum during the course of the procedures was defined as “an Anal LPP” in this Example. […] The Anal LPP was again measured in the same way 5 minutes after the administration with Compound A′. The difference in Anal LPP from the Pre value (increased amount of Anal LPP) was calculated. […]"}, "[5]": {"system": "anus-closing functions", "test": "Rat anus-closing functions (Anal LPP) measured by high speed infusion of saline into the rectum", "format": "in vivo", "settings": "5 minutes after administration, mean ± SEM", "text": "as §1, with “Thirty six female SD” for “Eighteen female SD”, “inhalation was further added during” for “inhalation was added during”\nAfter recovery period from surgery, while saline was infused at a speed of 0.1 mL/sec into the rectum using an infusion pump, change in the measured pressure—was observed. The infusion was stopped when the leakage of the saline from the anal orifice was observed. In the procedure, sudden decrease in the pressure was observed during the infusion with the leakage of saline from the anal orifice. The peak value of the pressure recorded in the rectum during the course of the procedures was defined as “an Anal LPP” in this Example. […] The Anal LPP was again measured in the same way 5 minutes after drug administration. The difference in Anal LPP from the Pre value (increased amount of Anal LPP) was calculated. Regarding change in Anal LPP before and after drug administration, the differences between the mean values of the drug-treated and vehicle-treated groups were analyzed by the one-tailed Williams' test or Student's t-test."}}, "data": [{"smiles": "CC(C)N(C)c1cnc2c(n1)OCCNC2.Cl", "note": "[Compound A′, N-methyl-N-(1-methylethyl)-6,7,8,9-tetrahydropyrazino[2,3-f][1,4]oxazeine-3-amine]", "values": [{"measurement": "EC50", "setting": "[1]", "result": 2.6, "unit": "nM"}, {"measurement": "LPP Post", "setting": "[2]; 0.3 mg/kg i.d.", "result": "55.0 ± 5.4", "unit": "cmH2O"}, {"measurement": "LPP Increase", "setting": "[2]; 0.3 mg/kg i.d.", "result": "7.8 ± 3.2", "unit": "cmH2O"}, {"measurement": "LPP Pre", "setting": "[2]; 0.3 mg/kg i.d.", "result": "47.2 ± 5.7", "unit": "cmH2O"}, {"measurement": "LPP Post", "setting": "[2]; 1 mg/kg i.d.", "result": "61.5 ± 4.9", "unit": "cmH2O"}, {"measurement": "LPP Increase", "setting": "[2]; 1 mg/kg i.d.", "result": "14.2 ± 2.7", "unit": "cmH2O"}, {"measurement": "LPP Pre", "setting": "[2]; 1 mg/kg i.d.", "result": "47.3 ± 5.0", "unit": "cmH2O"}, {"measurement": "LPP Post", "setting": "[2]; 3 mg/kg i.d.", "result": "77.3 ± 8.1", "unit": "cmH2O"}, {"measurement": "LPP Increase", "setting": "[2]; 3 mg/kg i.d.", "result": "29.7 ± 5.5", "unit": "cmH2O"}, {"measurement": "LPP Pre", "setting": "[2]; 3 mg/kg i.d.", "result": "47.6 ± 3.1", "unit": "cmH2O"}, {"measurement": "Change in body weight (% change)", "setting": "[3]; 1.35 mg/animal/day s.c. osmotic pump, day 3", "result": "−1.5 ± 0.5", "unit": "% change"}, {"measurement": "Change in body weight (% change)", "setting": "[3]; 1.35 mg/animal/day s.c. osmotic pump, day 7", "result": "−2.3 ± 0.8", "unit": "% change"}, {"measurement": "Change in body weight (% change)", "setting": "[3]; 1.35 mg/animal/day s.c. osmotic pump, day 10", "result": "−4.5 ± 0.8", "unit": "% change"}, {"measurement": "Change in body weight (% change)", "setting": "[3]; 1.35 mg/animal/day s.c. osmotic pump, day 14", "result": "−4.7 ± 0.8", "unit": "% change"}, {"measurement": "Change in body weight (% change)", "setting": "[3]; 4.5 mg/animal/day s.c. osmotic pump, day 3", "result": "−0.6 ± 0.2", "unit": "% change"}, {"measurement": "Change in body weight (% change)", "setting": "[3]; 4.5 mg/animal/day s.c. osmotic pump, day 7", "result": "−2.4 ± 0.4", "unit": "% change"}, {"measurement": "Change in body weight (% change)", "setting": "[3]; 4.5 mg/animal/day s.c. osmotic pump, day 10", "result": "−3.9 ± 0.4", "unit": "% change"}, {"measurement": "Change in body weight (% change)", "setting": "[3]; 4.5 mg/animal/day s.c. osmotic pump, day 14", "result": "−4.6 ± 0.6", "unit": "% change"}, {"measurement": "Change in body weight (% change)", "setting": "[3]; 13.5 mg/animal/day s.c. osmotic pump, day 3", "result": "−2.7 ± 0.2", "unit": "% change"}, {"measurement": "Change in body weight (% change)", "setting": "[3]; 13.5 mg/animal/day s.c. osmotic pump, day 7", "result": "−4.8 ± 0.3", "unit": "% change"}, {"measurement": "Change in body weight (% change)", "setting": "[3]; 13.5 mg/animal/day s.c. osmotic pump, day 10", "result": "−6.9 ± 0.5", "unit": "% change"}, {"measurement": "Change in body weight (% change)", "setting": "[3]; 13.5 mg/animal/day s.c. osmotic pump, day 14", "result": "−7.8 ± 0.5", "unit": "% change"}, {"measurement": "plasma concentration at which the drug lowered the body weight by 3.8%", "setting": "[3]; DIO-F344 rats, day 14, vehicle-subtracted, linear regression analysis", "result": 670, "unit": "ng/mL"}, {"measurement": "Anal LPP Increase", "setting": "[4]", "result": "9.2±3.0", "unit": "cmH2O"}, {"measurement": "Anal LPP Increase", "setting": "[5]; 0.3 mg/kg i.v.", "result": "6.2 ± 3.1", "unit": "cmH2O"}, {"measurement": "Anal LPP Increase", "setting": "[5]; 1 mg/kg i.v.", "result": "30.2 ± 9.6", "unit": "cmH2O"}]}]}
